# Results taken from patent US5416090A, “Method of treating inflammation” (priority 1992, dated 1995).
# Like-named read-outs stand apart in the source and are kept apart here.
# How the values were obtained:
# [1] = system: delayed type hypersensitivity (picryl chloride induced foot pad swelling); test: Murine delayed type hypersensitivity (DTH) response, picryl chloride; format: in vivo, mouse (Balb/c)
# Procedure: The activity of ergoline compounds was also evaluated in a murine delayed-type hypersensitivity (DTH) assay. The DTH assay was performed in substantial accordance with the method set forth in Example 1. Briefly, mice were sensitized by topical administration of picryl chloride on day 1 of the assay. On day 4 paw size was determined and recorded and the paw was then challenged with picryl chloride. The challenged paw was remeasured on day 5 to quantitate the DTH response via the increase in paw size.
# (§1) Male Balb/c mice (Charles River) weighing 20 to 25 g were used in all DTH studies. When adrenalectomized studies were carried out, sham surgery and adrenalectomized mice were obtained from the vendor. Animals were maintained on a 12:12 hour light:dark cycle. Mice were allowed ad lib access for food (Purina lab chow) and water (normal saline for adrenalectomized animals).
# (§2) A DTH response was assessed by measuring the degree of rear foot pad swelling induced by picryl chloride. On day 0, mice were sensitized with 100 μl of 5% picryl chloride (in ethanol), which was applied to a shaved abdomen. Negative control groups were shaved but not sensitized. On day 3, mice were anesthetized with methoxyflurane, and the baseline rear foot pad thickness was measured with a micrometer (Mitutoyo) in μ, and was recorded in duplicate. Fifty μl of picryl chloride was then applied to each pad with a pipet (Rainen) while the animal was unconscious. The negative controls also received picryl chloride at this point to control for primary irritancy. Twenty-four hours later, the mice were sacrificed by CO2 asphyxiation and each rear foot pad was again measured in duplicate, and any evidence of foot pad swelling was calculated. The mean rear foot swelling change of both pads for each animal from days 3 to 4 was used as the index of immune function in the DTH assay.
# (§3) Unless otherwise stated all animals were given four subcutaneous doses of test compound just prior to picryl chloride sensitization on day 0, on day 1 and day 2, and just prior to picryl chloride challenge on day 3. In a few experiments, compounds were administered via oral or intraperitoneal routes. All drugs were delivered as suspensions in 1% carboxy-methylcellulose (also contained 0.8% NaCl, 1% polysorbate-80, 1.4% benzyl alcohol). Carboxymethyl-cellulose (1%) was used in control injections.
# [2] = system: lipoidal amine induced arthritis; test: Lipoidal amine induced polyarthritis (hind paw volume and weight); format: in vivo, rat (Lewis); details: for minimal effective dose: Rattus norvegicus
# Procedure: Lipoidal amine induced polyarthritis is an animal arthritis model originally described by Chang, Y., et al. in Arthritis and Rheumatism 23:62-71 (1980). The lipoidal amine induced polyarthritis results from injection of N,N-dioctadecyl-N^1,N-bis(2-hydroxyethyl) propanediamine (7.5 mg/kg Lewis rat (220-225 g)), which is suspended in oil, intradermally at the base of the tail.
# [3] = system: graft versus host response (splenomegaly); format: in vivo, mouse (B6C3F1); details: FIG. 13, 10 daily doses
# [4] = system: dopamine receptor (DTH response); test: Reversal of DTH inhibition by dopamine receptor antagonists; format: in vivo, mouse; details: FIG. 9 Panels B, C legend; pretreated with domperidone or sulpiride
# Procedure: as §1, §2, §3
# [5] = system: carrageenan induced paw swelling; test: Carrageenan edema model (acute paw inflammation); format: in vivo, rat (Lewis); details: Rattus norvegicus, ip; read-out: ED50, inhibition of carrageenan induced paw swelling
# [6] = system: corticosterone; test: Serum/plasma corticosterone levels in mice; format: in vivo, mouse (Balb/C); details: FIG. 10 Panel A; 1 and 3 hr. following injection
# Description: Dopamine agonists are known to elevate circulating glucocorticoid levels, via activation of the hypothalamo-pituitary-adrenal axis. […] Since glucocorticoids are potential endogenous anti-inflammatory substances, this action is one potential mechanism for the anti-inflammatory effect of the ergolines. However, in subsequent inflammation studies, the anti-inflammatory effects of D-1-isopropyl-6-n-propyl-8β-methylthiomethyl ergoline were retained in mice lacking an adrenal gland and therefore devoid of the increase in circulating corticosterone. (FIG. 10B)
# (§4) Both Balb/C mice (male, approximately 20 g, Charles Rivers) and Lewis rats (male, approximately 200 g, Charles River or Harlan Sprague Dawley) were used in neuroendocrine studies. Animals were maintained on a 12:12 hour light:dark cycle and were allowed ad lib access for food (Purina lab chow) and water. Experimental groups consisted of 6 to 8 animals.
# After dosing with test compounds, animals were sacrificed by decapitation at 1, 3, 8 or 24 hour intervals. Trunk blood was collected, allowed to clot and serum obtained after centrifugation (3000 rpm for 15 min.). Serum was aliquoted and stored at -70° C. for subsequent radioimmunoassays. Serum prolactin was determined by radioimmunoassay. Serum corticosterone levels were determined with a kit designed for such determinations and obtained from ICN.
# [7] = system: serum prolactin; test: Serum prolactin levels in mice, time course; format: in vivo, mouse (Balb/C)
# Procedure: A further mechanistic study wherein rat serum prolactin levels were quantitated 1 hour post-treatment with varying doses of D-1-isopropyl-6-n-propyl-8β-methylthiomethyl ergoline is summarized in FIG. 11. […] A time course/dose response study of D-1-isopropyl-6-n-propyl-8β-methylthio-methyl ergoline effects on murine serum prolactin levels is presented in FIG. 12. […] There is however a disparity between the suppression of prolactin and anti-inflammatory activities of the ergolines with regard to the dose response profiles. Serum prolactin levels are much more sensitive to D-1-isopropyl-6-n-propyl-8β-methylthiomethyl ergoline (maximal suppression ~≤0.1 mg/kg) than are the anti-inflammatory effects 3-10 mg/kg, See FIG. 5).
# as §4
# After dosing with test compounds, animals were sacrificed by decapitation at 1, 3, 8 or 24 hour intervals. […] Serum prolactin was determined by radioimmunoassay. Serum corticosterone levels were determined with a kit designed for such determinations and obtained from ICN.
structure (smiles),measurement,setting,value
"CCCN1C[C@H](CSC)C[C@@H]2c3cccc4c3c(cn4C(C)C)C[C@H]21 [Compound 1, D-1-isopropyl-6-n-propyl-8β-methylthiomethyl ergoline]",reduction of paw swelling in DTH,[1]; FIG. 4 Panel A,efficacy
same,"reduction of DTH paw swelling, 4 day vs two day treatment","[1]; FIG. 4 Panel A, 4 days vs two day treatment schedule",superior efficacy
same,dose for anti-inflammatory effects,[1]; FIG. 5,3 to 10 mg/kg
same,effect on increase in hind paw volume and weight,[2]; FIG. 1,Inhibitory effect
same,minimal effective dose,"[2]; read-out: dosage giving statistically significant decrease in paw volume, FIG. 1 Panel A",≥ 0.7 mg/kg
same,minimal effective dose,"[2]; read-out: dosage giving statistically significant decrease in paw weight, FIG. 1 Panel B",≥ 0.7 mg/kg
same,immunosuppressive activity / effect on GVH splenomegaly,[3]; listed as D-1-isopropyl-6-n-propyl-8β-methyl-thiomethyl ergoline,unaffected
same,immunosuppressive activity / effect on GVH splenomegaly,[3]; listed as D-1-isopropyl-6-n-propyl-8β-methylthiomethyl ergoline,no immunosuppressive activity
same,immunosuppressive activity / effect on GVH splenomegaly,[3]; listed as compound 1,Lack of effect
same,reversal of DTH inhibition by antagonist pretreatment,[4],reversal of inhibition of the DTH
same,ED50,[5],~0.3 mg/kg
same,effect on plasma corticosterone,[6],increase plasma cortiosterone
same,duration of effect on serum prolactin,"[7]; FIG. 12, single injection",particularly long lasting effects
same,ED (maximal),"[7]; Mus musculus, compared with anti-inflammatory doses, read-out: dose for maximal suppression of serum prolactin",≤ 0.1 mg/kg
